Molecular target: T1, human ANO6 (variant 5) (Homo sapiens, UniProt Q4KMQ2)
T1 construct: expressed in transfected cells; host or cells: Fischer rat thyroid (FRT) cells
T1 sequence (Q4KMQ2 1-931 isoform Q4KMQ2-2): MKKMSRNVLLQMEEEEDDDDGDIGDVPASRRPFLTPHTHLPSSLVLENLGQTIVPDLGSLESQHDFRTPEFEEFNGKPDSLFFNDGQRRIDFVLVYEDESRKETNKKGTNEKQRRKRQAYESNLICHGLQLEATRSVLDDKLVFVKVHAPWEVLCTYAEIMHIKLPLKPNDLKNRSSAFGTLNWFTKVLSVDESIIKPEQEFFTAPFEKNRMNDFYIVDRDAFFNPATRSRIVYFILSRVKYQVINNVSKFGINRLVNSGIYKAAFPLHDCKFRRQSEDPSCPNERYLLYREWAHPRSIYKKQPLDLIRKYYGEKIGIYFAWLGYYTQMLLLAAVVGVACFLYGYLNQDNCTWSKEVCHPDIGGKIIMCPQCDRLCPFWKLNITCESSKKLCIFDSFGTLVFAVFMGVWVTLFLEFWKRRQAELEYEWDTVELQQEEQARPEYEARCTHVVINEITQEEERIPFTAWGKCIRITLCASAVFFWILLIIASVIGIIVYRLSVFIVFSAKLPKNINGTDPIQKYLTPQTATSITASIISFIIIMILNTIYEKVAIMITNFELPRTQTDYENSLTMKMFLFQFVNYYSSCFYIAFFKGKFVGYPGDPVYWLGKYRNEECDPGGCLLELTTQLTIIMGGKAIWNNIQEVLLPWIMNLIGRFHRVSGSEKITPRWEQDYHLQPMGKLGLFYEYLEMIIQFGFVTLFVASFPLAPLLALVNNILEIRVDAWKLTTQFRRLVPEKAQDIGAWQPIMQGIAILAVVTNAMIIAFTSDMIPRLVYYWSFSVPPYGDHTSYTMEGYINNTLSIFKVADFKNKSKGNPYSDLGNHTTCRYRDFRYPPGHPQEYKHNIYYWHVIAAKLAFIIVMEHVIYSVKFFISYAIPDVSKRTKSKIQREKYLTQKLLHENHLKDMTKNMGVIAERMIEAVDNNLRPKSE
Assay: Lact C2 assay (measuring phosphatidylserine externalization scramblase function)
Type: cell-based
Details: FRT cells expressing human ANO6 (variant 5), ionomycin 10 µM, Lact-C2-GFP fluorescence, average of three tests; for inhibition at 0.05 µM / inhibition at 0.1 µM / inhibition at 1 µM: FRT; for inhibition at 0.05 µM: read-out: % Inhibition 50 nM; for inhibition at 0.1 µM: compound 100 nM; for inhibition at 1 µM: compound 1 µM, read-out: % Inhibition 1 µM
Experimental: Ionomycin (Alomonelab, cat. # I-700), DAPI (Sigma- Aldrich, cat. # D8417), paraformaldehyde (Biosesang, cat. #P2031), Lionheart FX automated fluorescence microscope (BioTek), Gen5™ software program (BioTek), and Image J analysis software program.
After the incubation, the cells were treated with compounds dissolved in DMSO to 1% v/v in each well at each concentration (50 nM, 100 nM, and 1 µM) and reacted for 10 minutes. Thereafter, each well was treated with ionomycin to a final concentration of 10 µM, allowed to react for 10 minutes, and then washed with 200 µL PBS. After washing, each well was treated with 50 µL of Lactadherin-C2 (Lact-C2)-GFP mixed in DMEM medium to a final concentration of 500 nM to stain phosphatidylserine, and cultured at 37°C for 10 minutes. After completion of the reaction, the cells were washed with 200 µL PBS, and fixed with 4% paraformaldehyde for 5 minutes at room temperature. For morphological analysis, DAPI solution was added, and the cells were incubated for 15 minutes, followed by washing with PBS. The fluorescence intensity of Lact-C2-GFP bound to phosphatidylserine on the cell surface was measured using an automated fluorescence microscope. For quantitative analysis of the fluorescence intensity of Lact-C2-GFP, BioTek Gen5™ software and Image J analysis software programs were used.
Phosphatidylserine externalization inhibitory activity (%) by the compound was calculated through the following analysis method. Specifically, the background fluorescence value was subtracted from the measured Lact-C2-GFP fluorescence value, and the fluorescence value of the ionomycin non-treatment group and the ionomycin-treatment group in the same row where each test group was located in a 96-well microplate were calculated. In order to calculate the inhibitory activity (%) by the compound, the relative inhibitory activity was calculated by setting the compound and ionomycin non-treatment group to 100% inhibitory activity and the ionomycin alone treatment group to 0% inhibitory activity.

Row | inhibition at 0.05 µM (compound 50 nM) [%] | inhibition at 0.1 µM [%] | inhibition at 1 µM [%] | % Inhibition 50 nM (compound 50 nM) | SMILES
1 | > 60 | > 60 | > 60 | – | c1cnc(-c2ccc(Nc3cccc(-c4nc5ccccc5[nH]4)c3)cc2)nc1 [Example 26, N-[3-(1H-benzo[d]imidazol-2-yl)phenyl]-4-(pyrimidin-2-yl)aniline]
2 | > 60 | > 60 | > 60 | – | FC(F)(F)c1ccc2nc(-c3cccc(Nc4ccc(-c5ncccn5)cc4)c3)[nH]c2c1 [Example 27, N-[4-(pyrimidin-2-yl)phenyl]-3-[6-(trifluoromethyl)-1H-benzo[d]imidazol-2-yl]aniline]
3 | > 60 | > 60 | – | – | FC(F)(F)c1ccc2nc(-c3cccc(Nc4ccc(-c5cncnc5)cc4)c3)[nH]c2c1 [Example 28, N-[4-(pyrimidin-5-yl)phenyl]-3-[6-(trifluoromethyl)-1H-benzo[d]imidazol-2-yl]aniline]
4 | > 60 | > 60 | – | – | FC(F)(F)c1ccc2nc(-c3cccc(Nc4ccc(-c5cnccn5)cc4)c3)[nH]c2c1 [Example 29, N-[4-(pyrazin-2-yl)phenyl]-3-[6-(trifluoromethyl)-1H-benzo[d]imidazol-2-yl]aniline]
5 | 30 to 60 | 30 to 60 | – | – | c1cc(Nc2ccc(-c3cncnc3)cc2)cc(-c2nc3ccccc3[nH]2)c1 [Example 30, 3-(1H-benzo[d]imidazol-2-yl)-N-(4-(pyrimidin-5-yl)phenyl)aniline]
6 | 30 to 60 | > 60 | – | – | c1cncc(-c2ccc(Nc3cccc(-c4nc5ccccc5[nH]4)c3)cc2)c1 [Example 31, N-[3-(1H-benzo[d]imidazol-2-yl)phenyl]-4-(pyridin-3-yl)aniline]
7 | 30 to 60 | 30 to 60 | – | – | c1cc(Nc2ccc(-c3cnccn3)cc2)cc(-c2nc3ccccc3[nH]2)c1 [Example 32, 3-(1H-benzo[d]imidazol-2-yl)-N-(4-(pyrazin-2-yl)phenyl)aniline]
8 | 30 to 60 | 30 to 60 | – | – | c1cc(Nc2ccc(-c3ccncc3)cc2)cc(-c2nc3ccccc3[nH]2)c1 [Example 33, N-[3-(1H-benzo[d]imidazol-2-yl)phenyl]-4-(pyridin-4-yl)aniline]
9 | > 60 | > 60 | – | – | Cc1cscc1-c1cnc(Nc2cccc(-c3nc4ccccc4[nH]3)c2)nc1 [Example 43, N-(3-(1H-benzo[d]imidazol-2-yl)phenyl)-5-(4-methylthiophen-3-yl)pyrimidin-2-amine]
10 | > 60 | > 60 | – | – | c1ccc(-c2cnc(Nc3cccc(-c4nc5ccccc5[nH]4)c3)nc2)nc1 [Example 44, N-(3-(1H-benzo[d]imidazol-2-yl)phenyl)-5-(pyridin-2-yl)pyrimidin-2-amine]
11 | > 60 | > 60 | – | – | Fc1ccc2nc(-c3cccc(Nc4ncc(-c5ccccn5)cn4)c3)[nH]c2c1 [Example 45, N-[3-(6-fluoro-1H-benzo[d]imidazol-2-yl)phenyl]-5-(pyridin-2-yl)pyrimidin-2-amine]
12 | – | > 60 | – | B (30 to 60% inhibition) | Fc1ccc2nc(-c3cccc(Nc4ncc(-c5cccnn5)cn4)c3)[nH]c2c1 [Example 51, N-(3-(6-fluoro-1H-benzo[d]imidazol-2-yl)phenyl)-5-(pyridazin-3-yl)pyrimidin-2-amine]
13 | > 60 | > 60 | – | – | FC(F)(F)c1ccc2nc(-c3cccc(Nc4ncc(-c5cccnn5)cn4)c3)[nH]c2c1 [Example 52, 5-(pyridazin-3-yl)-N-(3-(6-(trifluoromethyl)-1H-benzo[d]imidazol-2-yl)phenyl)pyrimidin-2-amine]
14 | 30 to 60 | 30 to 60 | – | – | c1cc(Nc2ncc(-c3cccnn3)cn2)cc(-c2nc3ccccc3[nH]2)c1 [Example 53, N-[3-(1H-benzo[d]imidazol-2-yl)phenyl]-5-(pyridazin-3-yl)pyrimidin-2-amine]

Source: EP4559908A1, “HETEROARYL DERIVATIVE COMPOUND AND USE THEREOF” (S2CBio Inc., priority 2022, dated 2024)
